Results: ChEMBL document CHEMBL3507680, “University of Dundee, Gates Library screen for HepG2 cell viability”

Test: Human HepG2 cell viability assay in 384 well format
Type: toxicity, cell-based
Design: dose 125 nL, time 70.5 hour; cytotoxicity at 70.5 h: concentration not given beside the values
Conditions: HepG2 cells, read-out: Inhibition

Going from Cc1ccc(-n2cc(CN3CCOCC3)c(-c3cccc(C)c3)n2)cc1 to CCn1cc(CN2CCCC2c2nc(-c3ccccc3)no2)cc1C#N (configuration not stated), the cytotoxicity at 70.5 h rises from -2.44% to 2.37%.

First: O=C(N[C@@H]1C[C@H]2CC[C@@H]1C2)C1(Oc2ccc(Cl)cc2)CCNCC1
Second: O=c1[nH]c(COc2ccc(Cl)cc2)nc2c1CCNC2
The cytotoxicity at 70.5 h of the first is lower: -2.25% for the first, 16.3% for the second.

First: CC(=O)NCc1nc(CCOc2ccc(Cl)cc2)no1
Second: COCC(O)CNC(=O)c1coc(COc2cccc(F)c2)n1 (configuration not stated)
The cytotoxicity at 70.5 h of the first is lower: -4.84% for the first, -4.43% for the second.

Going from CCCc1nnc(NCCn2nc(C)c(Cl)c2C)o1 to CCC[C@@H]1CN(Cc2nnc(-c3cccnc3)o2)C[C@H]1NC(C)=O, the cytotoxicity at 70.5 h rises from -7.4% to -7.21%.

First: Cc1cccnc1CN1CCN(C(=O)[C@@]23CNC[C@@H]2CN(C)C3)CC1
Second: CCCN1CCc2[nH]cnc2C12CCN(C(=O)Cn1ccnc1C)CC2
The cytotoxicity at 70.5 h of the first is lower: -8.36% for the first, -6.5% for the second.

First: CN1CCC(N(C)CCC(=O)N2CCC(CCc3ccccc3)CC2)C1 (configuration not stated)
Second: Cc1nc(O)cc(C2CCN(C(=O)CN(C)c3ccccc3)CC2)n1
The cytotoxicity at 70.5 h of the first is higher: 26.3% for the first, -3.24% for the second.

Compared with NC(=O)[C@@H]1CCCN1C(=O)c1cn(C/C=C/c2ccccc2)nn1, O=C(O)C1CC2(CCN(c3nccc4ccccc34)CC2)CN1 (configuration not stated) is higher in cytotoxicity at 70.5 h: -14% for the first, 9.49% for the second.

Compared with CC[C@H]1CN(C(=O)c2ccc(-n3cnnc3)nc2)CC[C@@]1(C)O, CCc1ccc(CN2CCN(c3ccc(Cl)nn3)CC2)nc1 is lower in cytotoxicity at 70.5 h: 36% for the first, -4.56% for the second.

Going from CCCOc1ccc2ccccc2c1CN1CC[C@@]2(O)CCNC[C@H]2C1 to CN(C)S(=O)(=O)N1CC[C@]2(O)CCN(c3nc4ccccc4s3)C[C@@H]2C1, the cytotoxicity at 70.5 h rises from -4.34% to 3.99%.

Compared with COc1ccc(C(C(=O)O)N2CCC(O)(c3cccnc3)CC2)cc1F (configuration not stated), O=C(C1NCCc2[nH]cnc21)N1CCC2(C=Cc3ccccc32)CC1 (configuration not stated) is lower in cytotoxicity at 70.5 h: 6.42% for the first, -7.07% for the second.

Compared with COCCNC(=O)CCC1CCN(Cc2cccc(SC)c2)CC1, COc1cccc(S(=O)(=O)N2CCCCC2CCN2CCCC2=O)c1 (configuration not stated) is lower in cytotoxicity at 70.5 h: 5.26% for the first, -7.04% for the second.

First: CN(Cc1nccs1)c1nccc(N2CCN[C@H]3CS(=O)(=O)C[C@H]32)n1
Second: CC(=O)N1CCc2[nH]cnc2C12CCN(C(=O)Cc1ccccn1)CC2
The cytotoxicity at 70.5 h of the first is higher: 2.95% for the first, -14.9% for the second.

First: COc1ccccc1CNC(=O)CN(C)C(C)c1nccs1 (configuration not stated)
Second: CCC(CO)N(Cc1cccnc1)C(=O)c1ccoc1C (configuration not stated)
The cytotoxicity at 70.5 h of the first is lower: -1.57% for the first, 0.679% for the second.

Compared with COCCc1ncc(-c2c(C#N)c(N)nc3c2CCc2[nH]ccc2-3)cn1, Cc1cnc(C)c(N2CCCC(CO)(Cc3cccc(Cl)c3)C2)n1 (configuration not stated) is higher in cytotoxicity at 70.5 h: -3.18% for the first, 21.2% for the second.

Compared with Cc1ccc(SCCN(C)C(=O)c2cn([C@H]3CC[C@@H](N)CC3)nn2)cc1, CSc1ccc(CN(C(=O)c2cc[nH]n2)C2CC2)cc1 is lower in cytotoxicity at 70.5 h: 16.5% for the first, -7.21% for the second.

Going from Cc1nc(N2CCC3(CCCN(C(C)C)C3=O)C2)c2sccc2n1 (configuration not stated) to Cc1cc(NCc2nnc3n2CCCCC3)n2nc(C)c(C)c2n1, the cytotoxicity at 70.5 h rises from -13.4% to -5.75%.

Compared with Cc1ccc(F)cc1S(=O)(=O)N1C[C@@H](C)[C@@](C)(O)C1, COCCN1C(=O)[C@H]2CC[C@@H]1CN(S(=O)(=O)c1cccc(Cl)c1)C2 is higher in cytotoxicity at 70.5 h: 14.7% for the first, 17.8% for the second.

First: COc1ccc(CN2C[C@@H](CN(C)CCO)[C@@H](CO)C2)cc1Cl
Second: CC(C)=CCN1CCN(Cc2cccc(C)n2)CC1CCO (configuration not stated)
The cytotoxicity at 70.5 h of the first is lower: -7.1% for the first, 6.26% for the second.

Compared with COCCN(C)CCN1CC2(CCN(C3CCOC3)CC2)OC1=O (configuration not stated), COCCCN1CCCC(c2nccn2CC2CCC2)C1 (configuration not stated) is lower in cytotoxicity at 70.5 h: -0.423% for the first, -15% for the second.

Compared with c1ccc(-c2cc(CN3C[C@@H]4CC[C@H](C3)N(CC3CC3)C4)on2)cc1, N[C@H]1c2ccccc2C[C@@H]1NC(=O)C1CCN(Cc2ccco2)CC1 is lower in cytotoxicity at 70.5 h: -6.85% for the first, -11.4% for the second.

First: CCCn1c(C)c(CC(=O)N(C)CC(=O)OC)c2c1CC(C)(C)CC2=O
Second: CCc1[nH]c2ccc(CNc3cncc(C(=O)N(C)C)n3)cc2c1C
The cytotoxicity at 70.5 h of the first is lower: -3.68% for the first, -0.482% for the second.
